Results taken from patent US20230172899A1, “CANNABINOID COMPOSITIONS” (priority 2020, published 2023).
≈ marks a conversion by molar mass, not a printed value. Where two headings read alike, the source gives them in different places.

How the values were obtained:
[1] = test system: store-operated calcium entry (SOCE) in Jurkat T cells; test: SOCE inhibition, Fura-2 Ca2+ bioassay, thapsigargin-induced, Jurkat cells; format: cell-based, human; settings: for IC50: Homo sapiens, Jurkat; for Combinatory effect on SOCE inhibition when paired with CBGA: isobolographic analysis, pairs expected to inhibit 50%
[2] = test system: store-operated calcium entry (SOCE) in U937 monocytes; test: SOCE inhibition, Fura-2 Ca2+ bioassay, thapsigargin-induced, U937 cells; format: cell-based, human; settings: Homo sapiens
[3] = test system: store-operated calcium entry (SOCE) in Luva human mast cells; test: SOCE inhibition, Fura-2 Ca2+ bioassay, thapsigargin-induced, Luva cells; format: cell-based; settings: Homo sapiens, Mast cell, read-out: IC50 SOCE Luva
[4] = test system: store-operated calcium entry (SOCE) in RBL-2H3 rat mast cells; test: SOCE inhibition, Fura-2 Ca2+ bioassay, thapsigargin-induced, RBL-2H3 cells; format: cell-based; settings: Rattus norvegicus
[5] = test system: store-operated calcium entry (SOCE) in HEK293 cells; test: SOCE inhibition, Fura-2 Ca2+ bioassay, thapsigargin-induced, HEK293 cells; format: cell-based, human; settings: for IC50: Homo sapiens
[6] = test system: store-operated calcium entry (SOCE) in THP-1 cells; test: SOCE inhibition, combinatory (isobolographic) analysis, THP-1 cells; format: cell-based, human; settings: Homo sapiens, THP-1, read-out: SOCE IC50
Experimental: Bar graphs shown in FIGS. 10A-10Z and 10BB display SOCE amplitudes calculated from area under the curve (AUC) of the SOCE signals and normalized to SOCE in the presence of gadolinium. Combinatory effects were assessed using an isobolographic analysis approach, where CBGA was paired with another cannabinoid using concentrations of CBGA corresponding to 50%, 40%, 30%, 20%, 10%, and 0% inhibition (as derived from the IC50 curves of FIGS. 9A-9P) and combined with concentrations of the paired cannabinoid, so that each combination would be expected to inhibit 50% of the Ca^2+ signal (e.g., the CBGA concentration causing 50% inhibition was tested alone without the other cannabinoid, the CBGA concentration expected to block 40% of the signal was combined with the concentration of the other cannabinoid expected to inhibit 10%, the CBGA concentration expected to block 30% of the signal was combined with the concentration of the other cannabinoid expected to inhibit 20%, and so on). Simple additivity of cannabinoid pairs would be expected to inhibit the Ca^2+ signal by 50%. All the data in these experiments represent an average of 3 independent runs and the values are graphed as mean values±SEM.

[7] = test system: store-operated calcium entry (SOCE) in THP-1 cells; test: as above; format: cell-based, human; settings: 10 μM cannabinoid plus 2.2 μM CBGA
CRAC channels (ICRAC) = test: Whole-cell patch clamp of IP3-induced ICRAC in Jurkat cells; format: cell-based, human; settings: 10 μM, 50 μM IP3, −120 mV
Experimental: The ability of CBGA to inhibit store-operated calcium entry (SOCE) within cells was experimentally interrogated (see FIG. 12). Jurkat cells were perfused with 50 μM IP3 to induce store depletion and activation of CRAC channels (the resulting Ca^2+ inward current is known as ICRAC). ICRAC is a long-lasting inward current at −120 mV membrane potential (black trace) that can be blocked by 10 μM CBGA (gray trace).
(§1) Inward CRAC currents were induced at −120 mV (gray trace) and outward currents at +40 mV (black trace, where CRAC currents reverse and are essentially absent). At the +40 mV voltage potential, TRPM7 channels produce monovalent outward currents. Perfusion of 50 μM IP3 activates ICRAC at −120 mV as above and the removal of intracellular ATP slowly activates TRPM7 current at +40 mV. Application of 10 μM CBGA blocks both outward TRPM7 and inward CRAC currents (see FIG. 13, black and gray traces, respectively). Without being bound by theory, CBGA may also block TRPM7's kinase activity, similar to other TRPM7 blockers such as NS8593.

TRPM7 [8] = target: T1, TRPM7 (Homo sapiens, UniProt Q96QT4); test: Whole-cell patch clamp of TRPM7 outward current in Jurkat cells; format: cell-based; parameters: endogenous in cells; host or cells: Jurkat; settings: 10 μM, +40 mV, removal of intracellular ATP
Experimental: as §1
Target sequence in this assay (Q96QT4 whole entry): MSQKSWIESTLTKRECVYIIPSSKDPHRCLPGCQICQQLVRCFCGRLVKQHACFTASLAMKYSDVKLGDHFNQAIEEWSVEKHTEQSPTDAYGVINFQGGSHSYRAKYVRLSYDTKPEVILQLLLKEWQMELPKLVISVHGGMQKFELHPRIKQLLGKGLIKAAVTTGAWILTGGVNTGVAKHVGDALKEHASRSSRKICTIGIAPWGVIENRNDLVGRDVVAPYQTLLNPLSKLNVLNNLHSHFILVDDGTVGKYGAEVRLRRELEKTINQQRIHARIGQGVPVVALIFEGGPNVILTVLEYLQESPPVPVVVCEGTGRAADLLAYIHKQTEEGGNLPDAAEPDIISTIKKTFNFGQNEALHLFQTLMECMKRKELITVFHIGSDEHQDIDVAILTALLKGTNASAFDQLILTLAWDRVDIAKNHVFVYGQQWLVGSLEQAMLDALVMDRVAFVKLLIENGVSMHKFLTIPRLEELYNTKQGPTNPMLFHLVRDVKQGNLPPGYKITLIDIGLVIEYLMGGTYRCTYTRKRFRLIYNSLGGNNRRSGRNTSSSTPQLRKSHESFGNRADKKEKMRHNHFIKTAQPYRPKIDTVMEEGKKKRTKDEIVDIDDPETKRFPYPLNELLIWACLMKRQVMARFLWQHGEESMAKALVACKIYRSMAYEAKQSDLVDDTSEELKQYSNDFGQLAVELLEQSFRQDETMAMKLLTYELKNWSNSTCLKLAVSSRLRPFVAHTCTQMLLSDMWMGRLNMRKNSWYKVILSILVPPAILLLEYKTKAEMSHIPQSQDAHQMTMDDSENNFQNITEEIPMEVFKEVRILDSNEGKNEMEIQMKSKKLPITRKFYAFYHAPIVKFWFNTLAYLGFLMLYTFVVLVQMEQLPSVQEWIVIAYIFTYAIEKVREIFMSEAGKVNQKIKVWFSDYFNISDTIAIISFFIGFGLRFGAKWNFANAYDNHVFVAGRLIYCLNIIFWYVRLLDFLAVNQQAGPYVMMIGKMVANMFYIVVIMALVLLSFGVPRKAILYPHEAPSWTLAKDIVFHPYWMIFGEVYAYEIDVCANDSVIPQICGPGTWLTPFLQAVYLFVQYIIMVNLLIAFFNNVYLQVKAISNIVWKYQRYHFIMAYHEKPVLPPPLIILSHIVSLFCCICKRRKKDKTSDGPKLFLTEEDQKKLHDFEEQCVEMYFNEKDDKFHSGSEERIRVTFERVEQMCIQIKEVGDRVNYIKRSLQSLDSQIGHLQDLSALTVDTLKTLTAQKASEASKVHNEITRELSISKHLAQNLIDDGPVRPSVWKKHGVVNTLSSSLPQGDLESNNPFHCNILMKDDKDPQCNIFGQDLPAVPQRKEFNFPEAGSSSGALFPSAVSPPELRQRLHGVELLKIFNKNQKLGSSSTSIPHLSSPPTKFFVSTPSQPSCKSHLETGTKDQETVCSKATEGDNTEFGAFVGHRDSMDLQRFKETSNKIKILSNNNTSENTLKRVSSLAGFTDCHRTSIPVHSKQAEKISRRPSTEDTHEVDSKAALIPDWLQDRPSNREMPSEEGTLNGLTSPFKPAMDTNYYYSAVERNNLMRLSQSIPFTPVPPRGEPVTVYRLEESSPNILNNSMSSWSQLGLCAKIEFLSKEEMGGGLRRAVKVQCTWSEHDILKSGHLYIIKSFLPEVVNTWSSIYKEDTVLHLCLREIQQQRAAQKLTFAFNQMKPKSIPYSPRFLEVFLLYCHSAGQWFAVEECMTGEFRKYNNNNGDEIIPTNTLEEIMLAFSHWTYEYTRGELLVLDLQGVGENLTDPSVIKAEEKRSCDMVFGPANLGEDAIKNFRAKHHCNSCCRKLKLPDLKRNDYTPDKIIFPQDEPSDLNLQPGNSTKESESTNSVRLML

TRPM7 [9] = target: T1, TRPM7; test: Whole-cell patch clamp of TRPM7 over-expressed in HEK293 cells; format: cell-based; parameters: expressed in transfected cells; host or cells: HEK293; settings: HEK293 over-expressing TRPM7; 1, 3, 10 or 30 μM; +40 mV; 0 ATP, 0 Mg2+
Experimental: Activation of TRPM7 over-expressed in HEK293 cells by perfusing the cells with intracellular solution containing 0 ATP and 0 Mg^2+, resulting in fast and maximal activation of TRPM7 outward currents at +40 mV is shown in FIG. 14.
Data from dose-response curves for the inhibition of TRPM7 currents (dark gray symbols) obtained in experiments shown in FIG. 14 and SOCE-mediated increases in intracellular Ca^2+ (light gray symbols) are shown in FIG. 15.
Target sequence in this assay (Q96QT4 whole entry, species assumed): as the sequence (Q96QT4 whole entry) above

[10] = test system: store-operated calcium entry (SOCE) in various cell types; test: Thapsigargin-induced SOCE Fura-2 bioassay across various cell types; format: cell-based; settings: 1 μM; positive control; Jurkat, U937, Luva, RBL-2H3, HL-60, HEK-293
Experimental: A Fura-2 calcium flux assay was used to determine cytoplasmic Ca^2+ levels. Briefly, cells were preloaded with Fura-2 AM, and fluorescence intensity in cells intensity was measured over time as a ratio of detected 510 nm fluorescent light emission intensity when excited by UV light at 340 nm and 380 nm wavelengths (f340/f380 ratio). Gadolinium (Gd^3+) is known to block SOCE at a concentration of 1 μM and was used at 1 μM as a positive control in these experiments (gray line).
FIGS. 11TT-11-XX show dose-response curves for hemp varieties on store-operated calcium entry (SOCE) induced by thapsigargin in HEK-293, Jurkat, U937, LUVA, and RBL-2H3 cells. Hemp extracts (cold extracted and unheated) were tested at 6 different doses from 1 to 50 μg/ml. The effects on SOCE amplitude were plotted in a dose-dependent manner to determine the IC50 for each tested compound (see Table 6 for determined IC50 values). All data are averages of three independent runs±SEM. Tested hemp varieties were: Otto-18, Harlequin (HAR), and BOAX.
The general extraction method of Example 6 was carried out, and hemp extracts were subjected to heat treatment prior to testing for activity in the SOCE assay. In some instances, unheated and heated hemp extracts were combined prior to activity testing in the SOCE assay.

[11] = read-out: IC50 SOCE Jurkat, Table 5, individual cannabinoids
[12] = U-937, read-out: IC50 SOCE U937, Table 5, individual cannabinoids, U937
[13] = RBL-2H3, read-out: IC50 SOCE RBL-2H3, Table 5, individual cannabinoids, RBL-2H3
[14] = HEK293, read-out: IC50 SOCE HEK-293, Table 5, individual cannabinoids, HEK-293

| Structure (SMILES) | IC50 [1, 11] [µg/mL] | IC50 on SOCE relative to acidic variations ([1]; Jurkat cells, dose response 0 to 30 μM) | Combinatory effect on SOCE inhibition when paired with CBGA ([1]; Jurkat cells) | IC50 [2, 12] [µg/mL] | IC50 [3] [µg/mL] | IC50 [4, 13] [µg/mL] | IC50 [5, 14] [µg/mL] | IC50 [6] [µM] | Combinatory effect when paired with 2.2 μM CBGA [7] | IC50 ([1]; read-out: IC50 inhibition of SOCE-mediated increases in intracellular Ca2+, FIG. 15, cell type not stated there) [µM] | Inhibitory effect in immune cells compared with non-immune HEK293 cells ([5]; Jurkat vs HEK293 screening, 10 μM) | Block of inward CRAC current (ICRAC) (CRAC channels (ICRAC)) | Block of outward TRPM7 current (TRPM7 [8]) | Block of TRPM7 current (TRPM7 [9]) | IC50 ([1]; read-out: IC50 SOCE Jurkat) [µg/mL] | IC50 ([2]; U-937, read-out: IC50 SOCE U937) [µg/mL] | IC50 ([4]; RBL-2H3, read-out: IC50 SOCE RBL-2H3) [µg/mL] | IC50 ([5]; HEK293, read-out: IC50 SOCE HEK-293) [µg/mL] | Effect on thapsigargin-induced SOCE (f340/f380 ratio) [10] |
| --- | --- | --- | --- | --- | --- | --- | --- | --- | --- | --- | --- | --- | --- | --- | --- | --- | --- | --- | --- |
| CCCCCc1cc(O)c(C/C=C(\C)CCC=C(C)C)c(O)c1 [CBG, (E)-2-(3,7-dimethylocta-2,6-dien-1-yl)-5-pentylbenzene-1,3-diol] | 2.36 | higher IC50 than their acidic variations | stronger than predicted inhibitions | 33.5 (≈ 106 µM) | 33.6 (≈ 106 µM) | 3.29 (≈ 10.4 µM) | > 50 | > 30 | simple additive agonists |  |  |  |  |  |  |  |  |  |  |
| CCCCCc1cc(O)c(C/C=C(\C)CCC=C(C)C)c(O)c1C(=O)O [CBGA, (E)-3-(3,7-dimethylocta-2,6-dien-1-yl)-2,4-dihydroxy-6-pentylbenzoic acid] | 0.53 |  |  | 2.23 (≈ 6.19 µM) | 2.21 (≈ 6.13 µM) | 0.27 (≈ 0.749 µM) | 5.72 (≈ 15.9 µM) | ~2.2 |  | ~2 | more potent | completely blocks | blocks | dose-dependent block |  |  |  |  |  |
| CCCc1cc(O)c(C/C=C(\C)CCC=C(C)C)c(O)c1 [CBGV, (E)-2-(3,7-dimethylocta-2,6-dien-1-yl)-5-propylbenzene-1,3-diol] |  |  | stronger than predicted inhibitions |  | 40.7 (≈ 141 µM) |  |  | > 30 | simple additive agonists |  |  |  |  |  | 5.27 | 14.5 (≈ 50.3 µM) | 6.46 (≈ 22.4 µM) | 30.9 (≈ 107 µM) |  |
| CCCCCc1cc(O)c2c(c1)OC(C)(C)c1ccc(C)cc1-2 [CBN, 6,6,9-trimethyl-3-pentyl-6H-benzo[c]chromen-1-ol] | 9.09 |  | Simple additive behavior | 45.3 (≈ 146 µM) | > 50 | 33.4 (≈ 108 µM) | 42.6 (≈ 137 µM) | > 30 | simple additive agonists |  |  |  |  |  |  |  |  |  |  |
| [Cl][Gd]([Cl])[Cl] [Gd^3+, Gadolinium Chloride] |  |  |  |  |  |  |  |  |  |  |  |  |  |  |  |  |  |  | inhibited SOCE |
| CCCCCc1cc(O)c2c(c1)OC(C)(C)[C@@H]1CC=C(C)C[C@@H]21 [Δ8-THC, (6aR,10aR)-6,6,9-trimethyl-3-pentyl-6a,7,10,10a-tetrahydro-6H-benzo[c]chromen-1-ol] | 14.2 |  | inhibit less than predicted | > 50 | > 50 | 39.7 (≈ 126 µM) | > 50 | > 30 | sub-additive |  |  |  |  |  |  |  |  |  |  |
